Data published in patent US20140288044A1, “COMPOSITIONS AND THERAPEUTIC USES OF IKK-RELATED KINASE EPSILON AND TANKBINDING KINASE 1 INHIBITORS” (Alzheimer's Institute of America, Inc., priority 2011, published 2014).
pIC50: −log10 of the molar value. Like-named read-outs stand apart in the source and are kept apart here.

Key:
[1] = tested on: IKKε-mediated phosphorylation of IRF3; assay: ELISA for in-situ phosphorylation of IRF3 (phospho-Ser396) in HEK293T cells cotransfected with IRF3 and IKKε; assay type: cell-based; details: Homo sapiens, HEK-293T, 20 h, HEK293T cells, 20 hours, read-out: IC50, in-situ IKKε-mediated phosphorylation of IRF3
Method: HEK293T cells were cotransfected in a 10-cm dish with IRF3 and IKKε expression plasmids using Lipofectamine 2000 (Invitrogen, Carlsbad, Calif.). The following day, cells were replated at 20,000 per well in 96-well plates and treated with test compounds (compounds according to Formulae I and/or II) for 20 hours. Cell lysates were prepared and analyzed using an ELISA for phospho-Ser396 (anti-IRF3 capture antibody, Santa Cruz Biotechnology, Inc., Santa Cruz, Calif.; anti-p-Ser396 IRF3 detection antibody, Cell Signaling, Danvers, Mass.). pIRF3 levels in compound treated cells were normalized to DMSO treated cells (no compound). Cell viability was assayed in a parallel set of plates to monitor cytotoxic effects of the test compounds (CellTiter-Glo, Promega, Inc., Madison, Wis.). TBK1 activity was tested by Western blotting using a phospho-specific IRF7 antibody. Similar to above, HEK293T cells were transfected with IRF7 and TBK1 expression plasmids. Cells were seeded in 12-well plates at 150,000 per well and treated overnight with test compounds. Protein lysates were prepared and processed for Western blotting followed by detection using a phosphor-Ser477/Ser479 IRF7 antibody (BD Biosciences, San Jose, Calif.)

IKKε = target: T1, IKKε (Homo sapiens, UniProt Q14164); assay: In-vitro IKKε kinase assay (radiolabelled ATP, filterplate); assay type: biochemical
T1 construct: His-tag (in-house Sf9 preparation) or GST-tag (purchased Invitrogen preparation); these are alternatives, not both on one protein; host or cells: Sf9 cells
T1 sequence (Q14164 1-716): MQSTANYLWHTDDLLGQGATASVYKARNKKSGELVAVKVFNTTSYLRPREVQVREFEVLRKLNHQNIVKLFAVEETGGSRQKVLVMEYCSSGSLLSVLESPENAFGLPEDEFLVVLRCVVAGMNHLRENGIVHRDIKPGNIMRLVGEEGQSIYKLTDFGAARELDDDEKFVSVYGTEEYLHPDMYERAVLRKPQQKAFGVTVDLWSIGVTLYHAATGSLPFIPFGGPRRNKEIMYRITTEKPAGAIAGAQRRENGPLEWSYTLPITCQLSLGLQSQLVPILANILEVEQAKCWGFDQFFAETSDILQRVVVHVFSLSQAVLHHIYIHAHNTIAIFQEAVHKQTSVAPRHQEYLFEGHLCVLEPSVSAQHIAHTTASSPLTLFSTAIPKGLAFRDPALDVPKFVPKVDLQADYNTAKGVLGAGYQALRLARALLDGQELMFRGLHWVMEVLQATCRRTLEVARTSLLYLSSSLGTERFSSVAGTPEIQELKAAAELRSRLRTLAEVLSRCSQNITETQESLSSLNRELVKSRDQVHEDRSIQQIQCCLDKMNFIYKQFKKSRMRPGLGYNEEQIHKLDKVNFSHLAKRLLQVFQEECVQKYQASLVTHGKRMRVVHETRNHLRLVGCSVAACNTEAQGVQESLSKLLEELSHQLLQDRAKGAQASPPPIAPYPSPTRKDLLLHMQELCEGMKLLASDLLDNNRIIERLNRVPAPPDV
Method: IKKε enzyme was produced as a His-tag fusion in Sf9 cells or purchased as a GST-tag fusion (Invitrogen, Carlsbad, Calif.). TBK1 enzyme was produced as a His-tag fusion in Sf9 cells. Kinase reactions were carried out in reaction buffer using myelin basic protein (Millipore, Ballerica, Mass.), casein or dephosphorylated casein (Sigma, St. Louis, Mo.) as substrate at an ATP concentration equal to twice the Km,ATP value for each enzyme, corresponding to 32 μM ATP for IKKε and 60 μM ATP for TBK1. Radiolabelled [γ^33]ATP (PerkinElmer, Waltham, Mass.) in the amount of […] (IKKe, “normal”) or 0.7 μCi (IKKε, “sensitized”) or 1.25 μCi (TBK1) was added to each assay. Final enzyme concentrations were 0.1 or 0.015 μg/ml (IKKε) and 0.1 or 0.02 μg/ml (TBK1) for the “normal” and “sensitized” assay, respectively, and “sensitized” assays were conducted using only dephosphorylated casein as substrate. Test compounds (or DMSO solvent as a control) were added prior to initiation of the reactions. Reactions were terminated after 30-45 minutes by adding 3% phosphoric acid. Terminated reactions were transferred to P-81 cellulose phosphate filterplates (Whatman, Inc., Piscataway, N.J.) and washed with 1% phosphoric acid on a vacuum apparatus. After air drying, scintillant (PerkinElmer, Waltham, Mass.) was added and the plates were read on a PerkinElmer TopCount NXT instrument. Counts were normalized to DMSO controls after background subtraction.

[2] = "sensitized" assay, read-out: IC50, inhibition of the kinase activity of IKKε
[3] = in-vitro IKKε kinase inhibition assays, given as 0.005 μM (5 nM), read-out: IKKε kinase inhibitory activity (IC50 value)

Structure (SMILES) | pIC50 [1] | pIC50 (IKKε; [2]) | pIC50 (IKKε; [3]) | other results
N#Cc1cc(-c2ccnc(Nc3cncc(C(=O)N4CCN(CCO)CC4)c3)n2)ccc1OC1CCOCC1 [Example Compound 174, 5-{2-[(5-{[4-(2-Hydroxyethyl)piperazin-1-yl]carbonyl}pyridin-3-yl)amino]pyrimidin-4-yl}-2-(tetrahydro-2H-pyran-4-yloxy)benzonitrile] | 5.30 to 6.00 | – | – | –
CN(C)c1ccc(-c2ccc(Nc3nccc(-c4ccc(OC5CCOCC5)c(C#N)c4)n3)cn2)cn1 [Example Compound 169, 5-(2-{[6′-(Dimethylamino)-2,3′-bipyridin-5-yl]amino}pyrimidin-4-yl)-2-(tetrahydro-2H-pyran-4-yloxy)benzonitrile] | 5.30 to 6.00 | – | – | –
Cc1ccc(Nc2nccc(-c3ccc(NC(=O)C(C)C)c(C#N)c3)n2)cn1 [Example Compound 136, N-(2-Cyano-4-{2-[(6-methylpyridin-3-yl)amino]pyrimidin-4-yl}phenyl)-2-methylpropanamide] | 5.30 to 6.00 | – | – | –
CNCc1cncc(Nc2nccc(-c3ccc(OC4CCOCC4)c(C#N)c3)n2)c1 [Example Compound 203, 5-[2-({5-[(Methylamino)methyl]pyridin-3-yl}amino)pyrimidin-4-yl]-2-(tetrahydro-2H-pyran-4-yloxy)benzonitrile] | – | – | – | pIC50 ([1]; range given from about 1 μM to about 250 nM): 6.00 to 6.60
C[C@H](O)C(=O)N1CCC(Oc2ccc(-c3ccnc(Nc4ccc(N5CC(O)C5)nc4)n3)cc2C#N)CC1 [Example Compound 253, 5-(2-{[6-(3-Hydroxyazetidin-1-yl)pyridin-3-yl]amino}pyrimidin-4-yl)-2-({1-[(2S)-2-hydroxypropanoyl]piperidin-4-yl}oxy)benzonitrile] | 5.30 to 6.00 | – | – | –
Cc1ccc(Nc2nccc(-c3ccc(OCC4CC4)c(C#N)c3)n2)cn1 [Example Compound 112, 2-(Cyclopropylmethoxy)-5-{2-[(6-methylpyridin-3-yl)amino]pyrimidin-4-yl}benzonitrile] | 6.60 to 7.00 | – | – | –
N#Cc1cc(-c2ccnc(Nc3ccc(C4CC4)nc3)n2)ccc1NC(=O)C1CC1 [Example Compound 140, N-(2-Cyano-4-{2-[(6-cyclopropylpyridin-3-yl)amino]pyrimidin-4-yl}phenyl)cyclopropanecarboxamide] | > 7.00 | – | – | –
N#Cc1cc(-c2ccnc(Nc3ccc[n+]([O-])c3)n2)ccc1OC1CCOCC1 [Example Compound 236, 5-{2-[(1-Oxidopyridin-3-yl)amino]pyrimidin-4-yl}-2-(tetrahydro-2H-pyran-4-yloxy)benzonitrile] | 5.30 to 6.00 | – | – | –
COCCNc1ncc(-c2ccc(Nc3nccc(-c4ccc(OC5CCOCC5)c(C#N)c4)n3)cn2)cn1 [Example Compound 187, 5-{2-[(6-{2-[(2-Methoxyethyl)amino]pyrimidin-5-yl}pyridin-3-yl)amino]pyrimidin-4-yl}-2-(tetrahydro-2H-pyran-4-yloxy)benzonitrile] | – | > 8.30 | – | –
Cc1ccc(Nc2nccc(-c3ccc(NC(=O)C4CC4)c(C#N)c3)n2)cn1 [Example Compound 149, N-(2-Cyano-4-{2-[(6-methylpyridin-3-yl)amino]pyrimidin-4-yl}phenyl)cyclopropanecarboxamide] | – | > 8.30 | > 8.30 | –
CN(Cc1ccc(Nc2nccc(-c3ccc(OC4CCOCC4)c(C#N)c3)n2)cn1)S(C)(=O)=O [Example Compound 55, N-{[5-({4-[3-Cyano-4-(tetrahydro-2H-pyran-4-yloxy)phenyl]pyrimidin-2-yl}amino)pyridin-2-yl]methyl}-N-methylmethanesulfonamide] | – | – | > 8.30 | –
N#Cc1cc(-c2ccnc(Nc3ccc(C(=O)N4CCN(CCO)CC4)s3)n2)ccc1OC1CCOCC1 [Example Compound 95, 5-{2-[(5-{[4-(2-Hydroxyethyl)piperazin-1-yl]carbonyl}thiophen-2-yl)amino]pyrimidin-4-yl}-2-(tetrahydro-2H-pyran-4-yloxy)benzonitrile] | – | > 8.30 | > 8.30 | –
COc1cncc(Nc2nccc(-c3ccc(OC4CCOCC4)c(C#N)c3)n2)c1 [Example Compound 27, 5-{2-[(5-Methoxypyridin-3-yl)amino]pyrimidin-4-yl}-2-(tetrahydro-2H-pyran-4-yloxy)benzonitrile] | – | > 8.30 | > 8.30 | –
Cn1cc(-c2cc(Nc3nccc(-c4ccc(O[C@@H]5CCN(C(=O)CO)C5)c(C#N)c4)n3)ccn2)cn1 [Example Compound 204, 2-{[(3R)-1-(Hydroxyacetyl)pyrrolidin-3-yl]oxy}-5-(2-{[2-(1-methyl-1H-pyrazol-4-yl)pyridin-4-yl]amino}pyrimidin-4-yl)benzonitrile] | – | > 8.30 | – | –
N#Cc1cc(-c2ccnc(Nc3ccc(-n4ccnc4)nc3)n2)ccc1OC1CCOCC1 [Example Compound 200, 5-(2-{[6-(1H-Imidazol-1-yl)pyridin-3-yl]amino}pyrimidin-4-yl)-2-(tetrahydro-2H-pyran-4-yloxy)benzonitrile] | – | > 8.30 | – | –
CC(c1ccc(Nc2nccc(-c3ccc(OC4CCOCC4)c(C#N)c3)n2)cn1)N1CC(O)C1 (centres unmarked) [Example Compound 214, 5-[2-({6-[1-(3-Hydroxyazetidin-1-yl)ethyl]pyridin-3-yl}amino)pyrimidin-4-yl]-2-(tetrahydro-2H-pyran-4-yloxy)benzonitrile] | – | > 8.30 | – | –
COc1cc(Nc2nccc(-c3ccc(OC4CCN(C(=O)CO)CC4)c(C#N)c3)n2)ccn1 [Example Compound 222, 2-{[1-(Hydroxyacetyl)piperidin-4-yl]oxy}-5-{2-[(2-methoxypyridin-4-yl)amino]pyrimidin-4-yl}benzonitrile] | – | > 8.30 | – | –
COC1CN(c2cc(Nc3nccc(-c4ccc(NC(=O)C5CC5)c(C#N)c4)n3)ccn2)C1 [Example Compound 142, N-[2-Cyano-4-(2-{[2-(3-methoxyazetidin-1-yl)pyridin-4-yl]amino}pyrimidin-4-yl)phenyl]cyclopropanecarboxamide] | – | > 8.30 | > 8.30 | –
N#Cc1cc(-c2ccnc(Nc3ccnc(CN4CCC(F)(F)C4)c3)n2)ccc1OC1CCOCC1 [Example Compound 220, 5-[2-({2-[(3,3-Difluoropyrrolidin-1-yl)methyl]pyridin-4-yl}amino)pyrimidin-4-yl]-2-(tetrahydro-2H-pyran-4-yloxy)benzonitrile] | – | > 8.30 | – | –
CN(Cc1ccc(Nc2nccc(-c3ccc(OC4CCOCC4)c(C#N)c3)n2)cn1)C(=O)C(C)(C)O [Example Compound 56, N-{[5-({4-[3-Cyano-4-(tetrahydro-2H-pyran-4-yloxy)phenyl]pyrimidin-2-yl}amino)pyridin-2-yl]methyl}-2-hydroxy-N,2-dimethylpropanamide] | – | – | > 8.30 | –
C[C@H](O)C(=O)N1CCC(Oc2ccc(-c3ccnc(Nc4ccc(N5CCOCC5)nc4)n3)cc2C#N)CC1 [Example Compound 127, 2-({1-[(2S)-2-Hydroxypropanoyl]piperidin-4-yl}oxy)-5-(2-{[6-(morpholin-4-yl)pyridin-3-yl]amino}pyrimidin-4-yl)benzonitrile] | – | > 8.30 | > 8.30 | –
